Consider 29 molecules from ChEMBL document CHEMBL4393659, “Insights into the chemistry and therapeutic potential of furanones: A versatile pharmacophore” (Eur J Med Chem, 2019).

The term inhibition in vivo denotes the drop in the measured response relative to a control, in per cent. A word on the IC50: it is the midpoint of a concentration-inhibition curve. What is called MIC is the lowest concentration found to suppress growth. What is called inhibition is how much of the control response was suppressed. What is called ED50 is the midpoint of the dose-response relation. As a reminder, the LD50 is the dose expected to kill half of the subjects tested.

≈ marks a conversion by molar mass, not a printed value.

Series [1] has as its system Rattus norvegicus. Put plainly: Antiinflammatory activity in Wistar albino rat assessed as inhibition of carrageenan-induced paw edema at 20 mg/kg , po incubated for 30 mins followed by carrageenan addition and measured after 3 hrs by plethysmometry relative to control. The class given is functional. In general terms: The carrageenan paw model is a standard test of acute inflammation.

For series [2], the system named is Mus musculus. Put plainly: Analgesic activity in Swiss albino mouse assessed as inhibition of acetic acid induced writhing at 20 mg/kg , po incubated for 3 hrs followed by acetic acid administered and observed for 5 to 15 mins relative to control. The class given is functional. On the technique in general: Writhing tests count abdominal constrictions after an irritant is injected.

The target in series [3] is GABA-A receptor; anion channel. Put plainly: Displacement of [35S]TBPS from GABAA (unknown origin) incubated for 90 mins by scintillation counting method. The class given is protein-complex assay, Homo sapiens. (In general: Displacement assays read how much labelled ligand stays bound in the presence of the test substance.)
In series [4] the test system is Mus musculus. Nature of the series: Anticonvulsant activity in ip dosed CF-1 mouse assessed as protection against PTZ-induced seizures measured after 30 mins […]. Format: functional.
A further series deals with Salmonella typhimurium. Put plainly: Inhibition of biofilm formation in Salmonella enterica subsp. enterica serovar Typhimurium 14028S incubated for 48 hrs by crystal violet staining based assay. The class given is functional, organism-based.
The target of series [5] is Prostaglandin G/H synthase 2 (Homo sapiens, UniProt P35354). Put plainly: Inhibition of recombinant human COX2 expressed in baculovirus infected Sf9 cells.
For series [6], the system named is Aspergillus fumigatus. Put plainly: Antifungal activity against Aspergillus fumigatus assessed as reduction in fungal cell viability measured after 24 and 48 hrs by broth microdilution method. The class given is functional.
Series [7] deals with Candida albicans. Put plainly: Antifungal activity against Candida albicans ATCC 90028 assessed as reduction in fungal cell viability measured after 24 and 48 hrs by spectrophotometry. The class given is functional.
The subject of the next series is Liver. Put plainly: Antioxidant activity in Wistar rat liver microsomes assessed as inhibition of AAPH-induced MDA production at 100 mM incubated for 15 mins. Format: functional. The settings on record: Microsome.
The test system of series [8] is Escherichia coli. Nature of the series: Antibacterial activity against Escherichia coli assessed as inhibition zone incubated for 24 hrs by disk diffusion method relative to control. The class given is functional.
For series [9], the system named is Rattus norvegicus. Put plainly: Antiinflammatory activity in Wistar rat assessed as inhibition of carrageenan-induced edema measured upto 4 hrs. The class given is functional.
Another series deals with Plasmodium falciparum. Put plainly: Antimalarial activity against Plasmodium falciparum infected in human blood assessed as reduction in cell viability incubated for 72 hrs by Giemsa stain based assay. Format: functional.
The subject of series [10] is Rattus norvegicus. Nature of the series: Antiinflammatory activity in albino rat assessed as inhibition of carrageenan-induced paw edema by measuring mercury displacement at 20 mg/kg , po relative to control. The class given is functional.
Series [11] deals with GABA-A receptor; alpha-1/beta-2/gamma-2 (Homo sapiens) (UniProt P14867+P47870+P18507). Nature of the series: Positive allosteric modulation of recombinant GABAA alpha1beta2gamma2 (unknown origin) expressed in Xenopus laevis oocytes assessed as increase GABA-stimulated current amplitude at 200 uM by electrophysiological two-electrode voltage clamp method. Format: cell-based.

The subject of series [12] is Mus musculus. Put plainly: Anticonvulsant activity in ip dosed mouse assessed as reduction in PTZ-induced seizures pretreated for 30 mins followed by PTZ addition. Format: functional.
The test system of series [13] is Candida albicans. Put plainly: Antifungal activity against Candida albicans assessed as reduction in fungal cell viability incubated for 48 hrs by broth microdilution method. Format: functional.
For the next series, the system named is Staphylococcus aureus. Put plainly: Antibacterial activity against Staphylococcus aureus ATCC 29737 assessed as reduction in bacterial cell viability incubated for 24 hrs by broth microdilution method. The class given is functional. The settings on record: ATCC 29737, 24 h.
For a further series, the system named is Aspergillus niger. Put plainly: Antifungal activity against Aspergillus niger assessed as reduction in fungal cell viability incubated for 48 hrs by broth microdilution method. Format: functional.
A further series relates to Pseudomonas aeruginosa. Nature of the series: Antibacterial activity against Pseudomonas aeruginosa NCLM-2035 assessed as reduction in bacterial cell viability incubated for 24 hrs by broth microdilution method. The class given is functional. The following applies: NCLM-2035, 24 h.
The next series deals with Rhizopus arrhizus. Put plainly: Antifungal activity against Rhizopus oryzae assessed as reduction in fungal cell viability incubated for 48 hrs by broth microdilution method. Format: functional.
The test system of series [14] is Escherichia coli. Nature of the series: Antibacterial activity against Escherichia coli ATCC 8739 assessed as reduction in bacterial cell viability incubated for 24 hrs by broth microdilution method. The following applies: ATCC 8739, 24 h. Format: functional.
Series [15] is described as follows: Acute toxicity in Swiss albino mouse assessed as reduction in mortality of animal at 200 to 800 mg/kg , ip observed for 8 days. The class given is organism-based. The following applies: in vivo.
In series [16] the test system is Escherichia coli. Put plainly: Antibacterial activity against Escherichia coli. The class given is functional.
The species entered for series [17] is Rattus norvegicus. Put plainly: Antiarthritic activity in adjuvant-induced Sprague-Dawley rat. The class given is functional.
In series [18] the test system is Aspergillus fumigatus. Put plainly: Antifungal activity against Aspergillus fumigatus assessed as reduction in fungal cell viability by broth dilution method. Format: functional.
In another series the test system is Lichtheimia corymbifera. Nature of the series: Antifungal activity against Absidia corymbifera assessed as reduction in fungal cell viability by broth dilution method. Format: functional.

Chain of Prostaglandin G/H synthase 2 (P35354 whole entry): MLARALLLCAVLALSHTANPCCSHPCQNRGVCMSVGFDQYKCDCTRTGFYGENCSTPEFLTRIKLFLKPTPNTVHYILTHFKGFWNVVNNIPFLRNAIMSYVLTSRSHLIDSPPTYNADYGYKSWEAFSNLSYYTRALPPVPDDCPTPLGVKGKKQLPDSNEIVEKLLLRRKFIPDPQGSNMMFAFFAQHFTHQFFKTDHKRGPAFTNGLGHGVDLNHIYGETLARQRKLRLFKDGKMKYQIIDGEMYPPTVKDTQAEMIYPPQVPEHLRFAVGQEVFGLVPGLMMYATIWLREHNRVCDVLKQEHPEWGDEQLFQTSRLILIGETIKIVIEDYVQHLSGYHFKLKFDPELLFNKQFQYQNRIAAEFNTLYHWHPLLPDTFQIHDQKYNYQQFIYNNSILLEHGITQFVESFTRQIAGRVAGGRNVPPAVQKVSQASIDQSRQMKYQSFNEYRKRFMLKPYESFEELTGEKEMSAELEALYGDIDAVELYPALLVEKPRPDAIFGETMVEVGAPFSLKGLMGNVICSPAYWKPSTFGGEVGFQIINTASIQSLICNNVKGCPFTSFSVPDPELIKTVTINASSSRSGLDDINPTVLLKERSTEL

Turning to `O=C1OC(c2ccc3ccccc3c2)=C/C1=C\c1ccc([N+](=O)[O-])cc1`, the inhibition in vivo at 20 mg/kg in the series with Rattus norvegicus [1] is 74.8 to 89.7%; with Mus musculus [2], 70 to 74%.
With `CCC1(C)CC(C)(C(F)(F)F)OC1=O` (stereo unspecified), the half-maximal inhibitory concentration (IC50) in [3] was found to be 224 µM. Also, in the series on Mus musculus [4], the CD50 was determined as 47 mg/kg.
`CCC1=C(Br)/C(=C/Br)OC1=O` had an IC50 with Salmonella typhimurium of 50 µM.
Consider `Cc1ccc2c(c1)C1=C(c3ccc(S(C)(=O)=O)cc3)C(=O)OC1CC2` (stereo unspecified), for which the IC50 in [5] is 0.5 to 0.6 µM.
As for `C[C@@H]1[C@H](O)[C@@H](C)/C=C/C=C/C=C/C=C/C=C/C=C/C=C/[C@H](O[C@@H]2O[C@H](C)[C@@H](O)[C@H](N)[C@@H]2O)C[C@@H]2O[C@](O)(C[C@@H](O)C[C@@H](O)[C@H](O)CC[C@@H](O)C[C@@H](O)CC(=O)O[C@H]1C)C[C@H](O)[C@H]2C(=O)O` [AMPHOTERICIN B], in the series with Aspergillus fumigatus [6], the MIC was 0.5 µg/mL (≈ 0.541 µM).
The same measure, in the same setting: to `CC(C)(C)C(=O)OCC1C=C(c2ccc(Cl)c(Cl)c2)C(=O)O1` (stereo unspecified) belongs 1.34 µg/mL (≈ 3.9 µM).
For `CC(=O)OCC1C=C(c2ccc(Br)cc2)C(=O)O1` (stereo unspecified), the MIC with Candida albicans [7] is 0.5 µg/mL (≈ 1.61 µM).
In the case of `Cc1c(C)c2c(c(C)c1O)CCC(C)(CC1OC[C@@H]([C@H]3OC(=O)C(O)=C3O)O1)O2` (stereo partly specified), the inhibition with Liver was found to be 100%.
On to `CC1COc2c(N3CCN(C)CC3)c(F)cc3c(=O)c(C(=O)O)cn1c23` (stereo unspecified) [OFLOXACIN], for which the “inhibition zone (IZ)” value in the series with Escherichia coli [8] came out at 24 mm.
As to `O=C1OC(c2ccc(-c3ccccc3)cc2)=C/C1=C\c1cc2ccc([N+](=O)[O-])cc2nc1Cl`, the “inhibition (INH)” value in the series with Rattus norvegicus [9] was 56 - 63%.
For the molecule `COc1cccc2cc(/C=C3/CC(c4ccc(C)cc4C)OC3=O)c(Cl)nc12` (stereo unspecified), in the series with Plasmodium falciparum, the minimum inhibitory concentration (MIC) fell in the range of 0.5 to 0.72 µg/mL (≈ 1.27 to 1.83 µM).
For `COc1cc(/C=C2/C=C(c3ccc(C)cc3)OC2=O)cc(OC)c1OC`, in the series on Rattus norvegicus [10], the inhibition in vivo at 20 mg/kg stood at 45.2%.
With `O=C1OCCC1CC(F)(F)F` (stereo unspecified), the IC50 in series [3] came to 105 µM. In the series on Mus musculus [4], the CD50 was 30 mg/kg.
In the case of `O=C1OC(c2ccc(-c3ccccc3)cc2)=C/C1=C\c1cc2ccc(Cl)cc2nc1Cl`, the “inhibition (INH)” value in the series on Rattus norvegicus [9] is 56 - 63%.
Take `CCCC1(CCC)C(=O)OCC1NC(=O)OCC` (stereo unspecified): the Activity in series [11] is 426%.
`O=C1OC(c2ccc3ccccc3c2)=C/C1=C\c1ccccc1[N+](=O)[O-]`: the inhibition in vivo at 20 mg/kg is 74.8 to 89.7% with Rattus norvegicus [1] and 70 to 74% with Mus musculus [2].
In the case of `CCC1(CC)CC(CCOC(=O)c2ccc(C)cc2)OC1=O` (stereo unspecified), the ED50 in the series with Mus musculus [12] lay within 89.9 to 285 mg/kg.
Take `COc1ccc(C2=C/C(=C/c3ccc(F)cc3)C(=O)O2)cc1`: the “inhibition zone (IZ)” value with Escherichia coli [8] amounted to 14 mm.
For the molecule `O=C1OC(c2ccc(Cl)cc2)=C/C1=C\c1ccc(Br)cc1`, the MIC in the series with Candida albicans [13], in the series on Staphylococcus aureus, in the series on Aspergillus niger, in the series with Pseudomonas aeruginosa, in the series on Rhizopus arrhizus and in the series with Escherichia coli [14] was 12.5 to 50 µg/mL (≈ 34.6 to 138 µM) in each case.
For the molecule `O=C1OC(c2ccc(-c3ccccc3)cc2)=C/C1=C\c1cc2ccccc2nc1Cl`, the “inhibition (INH)” value with Rattus norvegicus [9] was 56 - 63%.
For the molecule `O=C1O[C@H]([C@@H](O)CO)C(O)=C1O` [ASCORBIC ACID], the LD50 at 192 h in [15] is more than 800 mg/kg.
The molecule `O=C1C=C(c2ccc(Cl)cc2)O/C1=N\C12CC3CC(CC(C3)C1)C2` came in with an MIC against Escherichia coli [16] of 7.8 µg/mL (≈ 22.8 µM).
For `COc1ccc(/C=C2\C=C(c3ccc4ccccc4c3)OC2=O)cc1`, the inhibition in vivo at 20 mg/kg in the series with Rattus norvegicus [1] lay in the range of 74.8 to 89.7%; in the series on Mus musculus [2], 70 to 74%.
Turning to `O=C1C=C/C(=C/Br)O1`, the 50% inhibitory concentration (IC50) with Salmonella typhimurium came out at 15 µM.
`CC(C1CCOC1=O)C(F)(F)F` (stereo unspecified) yielded a half-maximal inhibitory concentration (IC50) in series [3] of 142 µM. In addition, in the series with Mus musculus [4], the CD50 was found to be 30 mg/kg.
In the case of `COc1cc(/C=C2/C=C(c3ccc(C)cc3C)OC2=O)cc(OC)c1OC`, the inhibition in vivo at 20 mg/kg in the series on Rattus norvegicus [10] came out at 48.4%.
Consider `Cc1ccc(-c2cc(C(F)(F)F)nn2-c2ccc(S(N)(=O)=O)cc2)cc1` [CELECOXIB], for which the ED50 in the series listed under Rattus norvegicus [17] is 0.2 mg/kg/day.
On to `CC(=O)N1CCN(c2ccc(OCC3COC(Cn4ccnc4)(c4ccc(Cl)cc4Cl)O3)cc2)CC1` (stereo unspecified) [KETOCONAZOLE], for which the minimum inhibitory concentration (MIC) in the series on Aspergillus fumigatus [18] and in the series on Lichtheimia corymbifera was 16.6 µg/mL (≈ 31.2 µM) each time.
`Cc1ccc2cc(/C=C3\C=C(c4ccc(-c5ccccc5)cc4)OC3=O)c(Cl)nc2c1`: the “inhibition (INH)” value in the series on Rattus norvegicus [9] is reported as 56 - 63%.
